Test results as given in paper PMC11367644, “Structural basis for TNIP1 binding to FIP200 during mitophagy” (The Journal of Biological Chemistry, 2024).
Square brackets hold non-standard residues; d marks the D form. Peptide text beside a SMILES is read from it. pS = N[C@@H](COP(=O)(O)O)C(=O)O

Columns and labels:
[1] = biological target: T1, FIP200 claw domain K1568E (Homo sapiens, UniProt Q8TDY2, K1568E); assay: ITC with FIP200 claw domain mutant K1568E; settings: 20 °C, buffer B pH 7.0, N.D. = no detectable binding
T1 construct: human FIP200 claw domain1490–1594 was cloned; SUMO (N, cleaved yes); made in house; host or cells: Escherichia coli Rosetta (DE3)
T1 sequence (Q8TDY2 1490-1594 K1568E): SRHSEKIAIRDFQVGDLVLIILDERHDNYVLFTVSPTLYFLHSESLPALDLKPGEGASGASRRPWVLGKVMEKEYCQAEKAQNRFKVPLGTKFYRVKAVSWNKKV
Experimental: (§1) DNA fragment of human FIP200 claw domain1490–1594 was cloned into a modified pET28a (Novagen) plasmid, which contained an N-terminal SUMO-tag and a ULP1 protease cleavage site. All mutants were generated using a MutanBEST Kit (TaKaRa) and confirmed by DNA sequencing. The proteins were expressed in Escherichia coli Rosetta (DE3) cells (Novagen) cultured in LB medium at 37 °C to A600 = 1.0 and then shifted to 16 °C for 24 h after induction with 0.2 mM IPTG. Bacterial pellets were resuspended in buffer A (50 mM NaH2PO4 and 1 M NaCl, pH 7.0) and lysed by sonication. The crude lysate was then centrifuged at 14,000 rpm for 30 min at 4 °C. The supernatant was applied to a Ni-NTA column (QIAGEN), followed by size-exclusion chromatography using a Superdex 200 (GE Healthcare) column. After cleavage with ULP1 protease overnight at 16 °C to remove the SUMO-tag, an additional purification step was performed with a HiTrap SP FF column. The purified protein was concentrated to ∼20 mg/ml in buffer B (50 mM NaH2PO4, 150 mM NaCl, pH 7.0) and stored at −80 °C.
(§2) ITC assays were performed on a Microcal PEAQ-ITC instrument (Malvern) at 20 °C. The concentrations of proteins were determined spectrophotometrically. […] Thermodynamic data were analyzed with a single binding site model using MicroCal PEAQ-ITC Analysis Software provided by the manufacturer (Malvern).

[2] = biological target: T2, FIP200 claw domain K1569A (Homo sapiens, UniProt Q8TDY2, K1569A); assay: ITC with FIP200 claw domain mutant K1569A; settings: 20 °C, buffer B pH 7.0, N.D. = no detectable binding
T2 construct: human FIP200 claw domain1490–1594 was cloned; SUMO (N, cleaved yes); made in house; host or cells: Escherichia coli Rosetta (DE3)
T2 sequence (Q8TDY2 1490-1594 K1569A): as the sequence (Q8TDY2 1490-1594 K1568E) above, with E79K, K80A counted along it
Experimental: as §1, §2

In the case of CC(C)[C@H](NC(=O)[C@H](CCC(=O)O)NC(=O)[C@H](Cc1ccccc1)NC(=O)[C@H](CCC(=O)O)NC(=O)[C@H](COP(=O)(O)O)NC(=O)[C@H](CO)NC(=O)[C@@H](NC(=O)CNC(=O)[C@H](CO)NC(=O)[C@@H](N)CO)[C@@H](C)O)C(=O)N[C@H](C(=O)N[C@H](C(=O)N1CCC[C@H]1C(=O)N[C@@H](CCC(=O)O)C(=O)N[C@@H](CCC(=O)O)C(=O)N[C@@H](CCC(N)=O)C(=O)O)[C@@H](C)O)C(C)C [TNIP1_pS123^ long] (H-SSGTS[pS]EFEVVTPEEQ-OH), the KD [1] is reported as “Weak binding” and the KD [2] is reported as “Weak binding”.
